Reference: patent US7648993B2, “Methods of treating disorders with Group I mGluR antagonists” (Brown University, priority 2001, dated 2010)

Experiments:
[1] = system: cultured hippocampal neurons; test: Immunocytochemical localization of surface synaptic receptors (GluR2, GluR1, NR1, GABAAβ1); assay type: cell-based, rat; conditions: for GluR1-positive synapses: cycloheximide 60 μM applied 15 min before DHPG where named
Description: We next determined if the DHPG-induced increase in internalized AMPARs is accompanied by a net decrease in surface-expressed receptor clusters at synapses. At various intervals after DHPG washout, cells were fixed and surface GluR2 or GluR1 was labeled with N-terminal antibodies without permeabilization. The cultures were then permeabilized, and synapses were labeled using an antibody against the presynaptic marker synapsin I or synaptophysin coupled to the appropriate secondary antibody. Under control conditions, most synapses were immunoreactive for AMPAR clusters (GluR2, 80.6±9.0%; n=10 cells, 200 synapses, FIGS. 5A-D; GluR1, 72.5±4.7%; n=15 cells, 225 synapses; FIGS. 5E and F).
Following experimental treatment, low-density cultures were fixed in 4% paraformaldehyde with 4% sucrose for 5 min. Cultures were rinsed in PBS and then blocked in PBS with 20% fetal bovine serum for 1 h. Cultures were stained with N-terminal receptor antibodies overnight at 4° C. (GluR2, 1:100, Chemicon, Ternecula, California; GluR1, 1:100, gift of R. Huganir; NR1, 1:500, Chemicon MAB363; GABAAβ1, 1:100 Santa Cruz Biologicals, Santa Cruz, Calif.). Cultures were then rinsed in blocking buffer containing 0.1% Triton-X for 20 min and exposed to antibodies directed against presynaptic proteins (synapsin 1, 1:1000, Chemicon; synaptophysin, 1:100, Boehringer Manheim, Irvine, Calif.) for 1 h at room temperature. Cultures were then rinsed and exposed to the appropriate fluorescent secondary antibodies (Jackson Immunoresearch, West Grove, Pa.).
Microscopy was performed with a Nikon E800 microscope using a 60×1.4 NA objective (Melville, N.Y.). Fluorescence images were collected with a Sensys cooled CCD camera and analyzed using IP-Labs software. Additional images were collected with a Olympus Flowview confocal microscope with a 60×1.2 NA objective. All analyses were performed blind to the stimulation history of the culture. Microscopic fields had 1-3 neurons displaying smooth soma and generally healthy morphology with multiple distinct processes. Immunofluorescence was analyzed along the proximal 50 μm of 3 or more dendrites per neuron. Immunoreactive puncta were defined as discrete points along the dendrite with fluorescence intensity twice the background staining of the neuron. Five cells were analyzed per culture and 3-6 cultures were analyzed per condition. Separate controls were performed with each experiment and a Student's t-test was used to determine statistical significance. Data are expressed as puncta per 10 μm of dendrite unless stated otherwise.

[2] = system: CA1 neurons in hippocampal slices; test: NMDA-evoked currents in CA1 neurons of hippocampal slices; assay type: cell-based, Long Evans rats; conditions: DHPG 100 μM, 5 min; 50-60 min after treatment
Procedure: As an additional test for an mGluR-induced loss of NMDAR function, we examined the effects of 100 μM DHPG (5 min) on currents evoked by NMDA applied near the proximal portion of the primary apical dendrite (FIG. 9B). Significant depression of NMDAR currents occurred (percent baseline at 50-60 min after DHPG treatment, DHPG, 61.1±12.0, n=7; control, 97.3±9.4; n=7; p<0.05); however, the time course of this change was much slower than that observed for synaptically evoked EPSCs. […] The early LTD of EPSCs could be accounted for by a presynaptic mechanism or by the rapid dispersal of synaptic NMDARs (without immediate internalization). […] Regardless of the early consequences, however, the parallel depression of NMDAR EPSCs and NMDA-evoked responses 60 minutes after DHPG treatment is consistent with an eventual reduction in surface NMDAR expression during mGluR-LTD.
Hippocampal slices were prepared from P21-30 Long Evans rats (Charles River, Cambridge, Mass.) as described previously^13,14. Slices recovered for 1-2 h at room temperature in artificial cerebrospinal fluid (ACSF) containing 124 mM NaCl, 5 mM KCl, 1.25 mM NaH2PO4, 26 mM NaHCO3, 1 mM MgCl2, 2 mM CaCl2, 10 mM dextrose, saturated with 95% O2, 5% CO2. […]
Synaptically evoked-NMDAR-mediated EPSCs were recorded from area CA1 as described previously for visual cortex^20. […]

[3] = system: hippocampal slices from Fmr1-KO mice and wildtype littermates; test: DHPG-induced mGluR-LTD of field potentials in hippocampal slices of Fmr1-KO and WT mice; assay type: cell-based, C57BL/6 congenic mice
Procedure: ACSF at a rate of 2 ml/min.
Fresh stocks were made once a week.

[4] = DHPG 100 μM, 5 min, in APV, 60 min after DHPG

change in synapsin puncta density (in words) ([1]; 1 h after DHPG): no change
SMILES: NC(C(=O)O)c1cc(O)cc(O)c1 (racemic) [DHPG, (RS)-3,5-dihydroxyphenylglycine]
GluR1-positive synapses ([1]; 15 min after DHPG): 29.3±5.4%
NR1-positive synapses ([1]; 15 minutes after DHPG treatment): 28±6%
synapsin-labeled puncta with GABAAβ1 clusters ([1]; 60 min after DHPG treatment): 10.9±2%
GluR1-positive synapses ([1]; 60 min after DHPG): 20.0±12.0%
synapses with surface staining for GluR2 ([1]; 1 hour after DHPG treatment): 40.8±11%
NR1-positive synapses ([1]; 60 minutes after DHPG treatment, with cycloheximide where named): 21±3%
NMDA-evoked currents, percent baseline [2]: 61.1±12.0 percent baseline
FP slope, % of pre-DHPG baseline, Fmr1-KO mice [3, 4]: 77±3%
FP slope, % of pre-DHPG baseline, WT mice [3, 4]: 88±4%
maximal acute depression, % of pre-DHPG baseline values, KO ([3]; DHPG, Fmr1-KO slices): 26±5%
maximal acute depression, % of pre-DHPG baseline values, WT ([3]; DHPG, WT slices): 36±4%
